According to patent US5834491A, “Bis(2-aminopyridine)s, preparation method therefor and use thereof for controlling parasitic infections” (priority 1994, dated 1998):
Structures can show the parent of a compound that is named as a salt. Where two headings read alike, the source gives them in different places.

Experiments:
Babesia [1] = settings: McColm 1984; cited from earlier work
[2] = system: biosynthesis of phosphatidylcholine; experiment: Specificity towards phosphatidylcholine biosynthesis relative to other macromolecules (radiolabelled precursor incorporation); type: cell-based; settings: relative to nucleic acids, proteins, other phospholipids
Description: Verification of the mechanism of action is carried out on the various derivatives according to the invention by studying the specific interference with phospholipid biosynthesis and measuring the biosynthesis of the different biomolecules, nucleic acids, proteins and phospholipids, on the basis of the incorporation of radiolabelled precursors, [^3 H]hypoxanthine (see above), [^3 H]isoleucine and [^3 H]choline. The specificity in the precise realm of phospholipid metabolism is determined by comparison with the effect on the incorporation of [^3 H]ethanolamine into phosphatidylethanolamine (Ancelin M. L., Vialettes F. and Vial H. J., 1991, Anal. Biochem., 199, 203-209).

[3] = Semi-chronic toxicity in vivo; settings: mouse, mice
Plasmodium falciparum = experiment: Antimalarial activity in vitro towards Plasmodium falciparum ([3H]hypoxanthine incorporation, infected human erythrocytes); type: cell-based; settings: Erythrocyte, approximately 48 hours; for IC50 upper bound (active at tested concentration): Table I
Description: Evaluation of the antimalarial activity in vitro is carried out according to the method of DESJARDINS, CANFIELD, HATNES and CHULAY (Antimicrob. Agents Chemother., 1979, 16, 710-718). A compound according to the invention is brought into contact for approximately 48 hours with human erythrocytes infected with Plasmodium falciparum. When a radioactive nucleic acid precursor, hypoxanthine, is added to the preparation, only erythrocytes infected with Plasmodium and not affected by the said compound incorporate this precursor. […] The results are presented in Table I below, in the form of an IC50 (or ED50) (concentration of compound capable of inhibiting in vitro the growth of the parasites by 50%).
The derivatives according to the above examples are tested at three concentrations, 100, 33 and 10 nanomolar.

[4] = system: Plasmodium vinckei, petteri or chabaudi; experiment: Antimalarial activity in vivo, infected mice, 4 days; design: species or system petteri or chabaudi (male Swiss mice); settings: ip, I.P., twice daily for 4 consecutive days
Description: This activity is measured according to the test described by PETERS W. (Chemotherapy and Drug resistance in Malaria, 1970). A compound according to the invention is administered for 4 consecutive days to mice infected beforehand with malaria using Plasmodium vinckei, petteri or chabaudi.
The said compound is dissolved in 0.9% aqueous NaCl solution or, where appropriate, in 10% aqueous gum arabic solution. The preparations are thus administered intraperitoneally or subcutaneously to male Swiss mice of average weight 30 to 40 g which have been infected beforehand intravenously with Plasmodium petterei or P. chabaudi (10^6 infected cells). The compound is administered twice daily for 4 consecutive days, the first injection being performed 2 hours after infestation, and the second 10 hours after. The parasitaemia is determined by means of a smear on the day following the end of the treatment.
The results are collated in Table II, in the form of an ED50 (dose of compound administered in vivo capable of a 50% inhibition of the growth of the parasites).

Babesia [5] = settings: cited from earlier work
Babesia [6] = settings: cited from earlier work; remark: listed apart in the source

Molecule	resistance of Babesia (Babesia [1])	results in vivo against Babesia (Babesia [5])	activity in vitro against Babesia (Babesia [6])	further results
gramicidin D	increased resistance			
Cc1ccn(CCCCCCCCCCCCn2ccc(C)cc2=N)c(=N)c1 [Example 1, 1,1'-(1,12-dodecanediyl)bis(4-methyl-2(1H)-pyridinimine) dihydrobromide]				specificity of action towards the biosynthesis of phosphatidylcholine, relative to the biosyntheses of the other macromolecules [2]: best specificity of action towards the biosynthesis of phosphatidylcholine; LD50 ([3]; ip, I.P., 2 injections daily for four days, read-out: Toxicity LD50 I.P.): 30 mg/kg; LD50 ([3]; po, P.O., semi-chronic, four days, read-out: Toxicity LD50 P.O.): 365 mg/kg; IC50 upper bound (active at tested concentration) (Plasmodium falciparum; 33 nM, read-out: Plasmodium IC50 in vitro resp. at 33 nM): < 0.033 µM; IC50 upper bound (active at tested concentration) (Plasmodium falciparum; 100 nM, read-out: Plasmodium IC50 in vitro resp. 100 nM): < 0.1 µM; IC50 (Plasmodium falciparum; Table II): 0.0005 µM; ED50 [4]: 1.2 mg/kg
O=C1C(O)=C(CCCCCCCCC2CCCCC2)C(=O)c2ccccc21 [menoctone]		without, however, giving good results in vivo	active in vitro	
CC[C@H]1OC(=O)C[C@@H](O)[C@H](C)[C@@H](O[C@@H]2O[C@H](C)[C@@H](O[C@H]3C[C@@](C)(O)[C@@H](O)[C@H](C)O3)[C@H](N(C)C)[C@H]2O)[C@@H](CC=O)C[C@@H](C)C(=O)/C=C/C(C)=C/[C@@H]1CO[C@@H]1O[C@H](C)[C@@H](O)[C@@H](OC)[C@H]1OC [tylosin]	increased resistance			
CN(C)C1C(=O)C(C(N)=O)=C(O)C2(O)C(=O)C3=C(O)c4c(O)cccc4C(C)(O)C3CC12 (centres unmarked) [tetracycline]		without, however, giving good results in vivo	active in vitro	
CO[C@H]1/C=C/O[C@@]2(C)Oc3c(C)c(O)c4c(O)c(cc(O)c4c3C2=O)NC(=O)/C(C)=C\C=C\[C@H](C)[C@H](O)[C@@H](C)[C@@H](O)[C@@H](C)[C@H](OC(C)=O)[C@@H]1C [rifamycin]	increased resistance			
